pIC50: −log10 of the molar value. Activity calls are given as the source filed them. No cut-off for these calls is given here.
Key:
[1] = system: MGC-803; test: Effect on LSD1 expression in human MGC803 cells up to 2.5 uM after 5 days by DAPI staining based immunofluorescence assay; type: functional, cell-based
[2] = target: Lysine-specific histone demethylase 1A (Homo sapiens, UniProt O60341)
Description: Inhibition of recombinant full length LSD1 (unknown origin) expressed in Escherichia coli BL21 (DE) using H3K4me2 substrate by fluorescence assay

pIC50 [2] | SMILES | Activity [1]
– | N/C(=N\O)c1ccc(/C=C/c2cc(O)c(O)cc2Br)cc1 | inactive
– | N/C(=N\O)c1cccc(/C=C/c2cc(O)c(O)cc2Br)c1 | inactive
4.99 | Oc1ccc(/C=C/c2cc(O)cc(O)c2)cc1 [RESVERATROL] | –
